Data taken from paper PMC5712356, “A New Ala-122-Asn Amino Acid Change Confers Decreased Fitness to ALS-Resistant Echinochloa crus-galli” (Frontiers in Plant Science, 2017).

Tested on: T1, ALS (acetolactate synthase; acetohydroxyacid synthase, AHAS; EC 2.2.1.6)
T1 construct: not purified; polyploid species, ALS gene copies not separated
Assay: acetoin (Westerfeld) colorimetric ALS assay, […] nm, log-logistic fit
Type: biochemical, Echinochloa crus-galli
Details: sub-population S (no known ALS mutation); Na-pyruvate, MgCl2, TPP, FAD, pH 7.0, 37 °C, 90 min; partially purified leaf extract; read-out: I50

SMILES | IC50 [nM]
COCc1cnc(C2=NC(C)(C(C)C)C(=O)N2)c(C(=O)O)c1 (centres unmarked) [Imazamox] | 1740
COc1cc(OC)nc(NC(=O)NS(=O)(=O)c2ncccc2C(=O)N(C)C)n1 [Nicosulfuron] | 19
